Results reported in US10213432B2, “Dosage regimen for a PI-3 kinase inhibitor” (NOVARTIS AG, priority 2012, dated 2019).
Like-named read-outs stand apart in the source and are kept apart here.

Tests used:
[1] = system: solid tumors; conditions: humans; Bendell et al., J. Clin. Oncology 2012; cited from earlier work
[2] = system: Hormone Receptor Positive (+) metastatic breast cancer; format: in vivo, human; conditions: in combination with letrozole 2.5 mg/day per oral
Protocol: An open-label, randomized multi-institution clinical study using the hydrochloride salt of Compound A alone and in combination with the therapeutic agent letrozole for the treatment of post-menopausal patients with Hormone Receptor Positive (+) metastatic breast cancer is investigated. Patients are evaluated for safety profile/tolerability and preliminary antitumor effect.
Patients are included in the study if they meet the following criteria: at least 18 years of age, ECOG performance status 0-1, suffering from clinical stage 1V invasive mammary carcinoma (ER-positive, or PR-positive) by immunohistochemistry, life expectancy equal to or greater than 6 months, adequate hematologic, hepatic and renal function (ANC≥1500/mm^3, platelet count≥100,000 mm^3, HgB≥9 g/dL, creatine≤1.5×upper limits of normal, bilirubin≤1.5×upper limits of normal, SGOT, SGPT≤2.5×upper limits of normal if no liver metasis present or SGOT, SGPT alkaline phosphatase≤5×upper limits of normal if liver metasis present, capable of swallowing and retaining oral medication, disease free of prior invasive cancers for >5 years (exception of basal or squamous cancer of skin or cervical carcinoma in situ). Patients may receive concurrent radiation therapy to painful bone metastases or areas of impending bone fracture as long as radiation therapy is completed≤2 weeks prior to study and recovered from toxicity (≤grade 1) induced by this radiation treatment. Post-menopausal female subjects are defined prior to protocol enrollment by any of the following: Subjects at least 55 years of age; Subjects under 55 years of age and amenorrheic for at least 12 months or follicle-stimulating hormone (FSH) values[…] and estradiol levels≤20 IU/L; prior bilateral oophorectomy; prior radiation castration with amenorrhea for at least 6 months; current use of an LHRH agonist for more than 12 months.
Patients with the following mood disorders as judged by investigator or psychiatrist are also excluded: medically documented history of or active major depressive episode; bipolar disorder (I or II), obsessive-compulsive disorder, schizophrenia, a history of suicidal attempt or ideation, or homicidal ideation (immediate risk of doing harm to others); or ≥CTCAE grade 3 anxiety.
In the first stage of the study, safety and tolerability of the hydrochloride salt of Compound A is evaluated in combination with the therapeutic agent letrozole in post-menopausal patients with Hormone Receptor Positive (+) metastatic breast cancer is investigated. The maximum tolerated dose of the hydrochloride salt of Compound A […] is determined at dosages of 100 mg per oral daily, 80 mg per oral daily, and 50 mg per oral daily, in combination with letrozole administered at 2.5 mg/day per oral.
In the second stage of the study, the antitumor effect of the hydrochloride salt of Compound A in combination with letrozole for the treatment of post-menopausal patients with Hormone Receptor Positive (+) metastatic breast cancer is investigated. Patients are administered the hydrochloride salt of Compound A and letrozole at a daily dosage identified to be with in the MTD in the first stage (Arm A).
In one additional experimental arm (Arm C), Patients are administered a daily dosage of the hydrochloride salt of Compound A in the amount of 60, 80 or 100 mg per oral on Monday through Fridays only each week in combination with 2.5 mg/day per oral letrozole.
Secondary outcome for the second stage is progression free survival and response.
Following the above experiment, 51 patients were accrued, 49 progressed after aromatase inhibitor therapy. Median age was 56 years and 95% of patients ad bone metastasis and 70% visceral metastases.

[3] = Arm C (31): 60, 80 or 100 mg per oral Monday through Fridays only

For `Nc1cc(C(F)(F)F)c(-c2cc(N3CCOCC3)nc(N3CCOCC3)n2)cn1` [Compound A, 5-(2,6-di-morpholin-4-yl-pyrimidin-4-yl)-4-trifluoromethyl-pyridin-2-ylamine], the “efficacy in the treatment of solid tumors” value [1] is listed as “has been demonstrated in humans”, the “Median TTP” value ([2]; Arm A (20): daily dosing) is listed as 4 (2-11) months and the “Patient outcomes: CR” value ([2]; Arm A (20): daily dosing) is listed as 1. The “Patient outcomes: PD” value ([2]; Arm A (20): daily dosing) was 7, the “Patient outcomes: PR” value ([2]; Arm A (20): daily dosing) was 1 and the “Patient outcomes: SD” value ([2]; Arm A (20): daily dosing) was 9. The “Median TTP” value [2, 3] was “Not reached”, the “Patient outcomes: CR” value [2, 3] was 0 and the “Patient outcomes: PD” value [2, 3] was 8. For the same molecule, the “Patient outcomes: PR” value [2, 3] was 0 and the “Patient outcomes: SD” value [2, 3] was 4.
